The test has as its system Escherichia coli ATCC 25922. In words: 50% growth inhibitory concentration (IC50) determination, Iso-Sensitest broth dilution. It is filed as cell-based. The conditions noted are these: strain Escherichia coli ATCC 25922, 10-point broth dilution, optical density at 600 nm over 16 h, read-out: Escherichia coli growth inhibition IC50. The method in brief: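 10-point twofold Iso-Sensitest broth dilution (e.g. 50 to 0.097 μM final) with DMSO stocks, incubated at 35±2° C. Growth followed by OD 600 nm every 20 min over 16 h; IC50 derived from growth inhibition during logarithmic phase.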

[1] abbreviates: Escherichia coli, ATCC25922, 16 h.

Each structure is given as a SMILES string. Like-named read-outs stand apart in the source and are kept apart here.

The results in this text go back to patent US20230167127A1, “COMPOUNDS AND THEIR USE IN THE TREATMENT OF BACTERIAL INFECTION” (Hoffmann-La Roche Inc., priority 2020, published 2023).

As to `CC(=O)N1CC(Oc2cc(F)c3c(c2)CC(CNCCC2CN(c4cnc5c(n4)NC(=O)CO5)C(=O)O2)C3)C1` (stereo not shown) [Example 354, 6-[5-[2-[[6-(1-acetylazetidin-3-yl)oxy-4-fluoro-2,3-dihydro-1H-inden-2-yl]methylamino]ethyl]-2-oxo-1,3-oxazolidin-3-yl]-4H-pyrazino[2,3-b][1,4]oxazin-3-one; formic acid], the IC50 (commonly the point on the concentration scale where inhibition reaches its midpoint) under setting [1] came to 392 nM.
The same measure, in the same setting: the result for `NC1c2cccc(Cl)c2CC1CNCCc1nn(-c2ccc3c(n2)NC(=O)CO3)c(=O)o1` (racemic) [Example 153, 6-[5-[2-[(rac-1,2-trans-1-amino-4-chloro-2,3-dihydro-1H-inden-2-yl)methylamino]ethyl]-2-oxo-1,3,4-oxadiazol-3-yl]-4H-pyrido[3,2-b][1,4]oxazin-3-one] reads 198 nM; that for `Cc1ncc(F)c2c1CC(NC(C)CCC1CN(c3cnc4c(n3)NC(=O)CO4)C(=O)O1)C2` (single isomer, unassigned; isomer a) [Example 333, 6-[5-[3-[(4-fluoro-1-methy1-6,7-dihydro-5H-cyclopenta[c]pyridin-6-yl)amino]butyl]-2-oxo-1,3-oxazolidin-3-yl]-4H-pyrazino[2,3-b][1,4]oxazin-3-one, Isomer A], 265 nM.
Take `CC(CN)Oc1cc(F)c2c(c1)CC(CNCCC1CN(c3ccc4c(n3)NC(=O)CO4)C(=O)O1)C2` (stereo not shown) [Example 155, 6-[5-[2-[[6-(1-aminopropan-2-yloxy)-4-fluoro-2,3-dihydro-1H-inden-2-yl]methylamino]ethyl]-2-oxo-1,3-oxazolidin-3-yl]-4H-pyrido[3,2-b][1,4]oxazin-3-one; formic acid]: the IC50 under setting [1] stood at 364 nM.
Consider `O=C1COc2ccc(N3CC(CCNCC4Cc5ccnc(Cl)c5C4)OC3=O)nc2N1` (stereo not shown) [Example 86, 6-[5-[2-[(1-chloro-6,7-dihydro-5H-cyclopenta[c]pyridin-6-yl)methylamino]ethyl]-2-oxo-1,3-oxazolidin-3-yl]-4H-pyrido[3,2-b][1,4]oxazin-3-one], for which the IC50 under setting [1] worked out at 134 nM.
For `NC1c2ccnc(Cl)c2CC1CNCCC1CN(c2ccc3c(n2)NC(=O)CO3)C(=O)O1` (stereo not drawn) [Example 123, 6-[2-oxo-5-[2-[[5,6-trans-5-amino-1-chloro-6,7-dihydro-5H-cyclopenta[c]pyridin-6-yl]methylamino]ethyl]-1,3-oxazolidin-3-yl]-4H-pyrido[3,2-b][1,4]oxazin-3-one; formic acid], the IC50 under setting [1] is 248 nM.
Same read-out and setting: the figure for `NC1c2cccc(Cl)c2CC1CNCCc1cn(-c2cnc3c(n2)NC(=O)CO3)c(=O)o1` (racemic) [Example 359, 6-[5-[2-[(rac-1,2-trans-1-amino-4-chloro-2,3-dihydro-1H-inden-2-yl)methylamino]ethyl]-2-oxo-1,3-oxazol-3-yl]-4H-pyrazino[2,3-b][1,4]oxazin-3-one; formic acid] is below 97.7 nM; for `N[C@H]1c2cccc(Cl)c2C[C@@H]1CNCC[C@@H]1CN(c2cnc3c(n2)NC(=O)CO3)C(=O)O1` [Example 403, 6-[(5R)-5-[2-[[(1R,2R)-1-amino-4-chloro-2,3-dihydro-1H-inden-2-yl]methylamino]ethyl]-2-oxo-1,3-oxazolidin-3-yl]-4H-pyrazino[2,3-b][1,4]oxazin-3-one] it is below 97.7 nM.
On to `Cc1ncc(C#N)c2c1CC(CNCCC1CN(c3ccc4c(n3)NC(=O)CO4)C(=O)O1)C2` (stereo not shown) [Example 47, 1-methyl-6-[[2-[2-oxo-3-(3-oxo-4H-pyrido[3,2-b][1,4]oxazin-6-yl)-1,3-oxazolidin-5-yl]ethylamino]methyl]-6,7-dihydro-5H-cyclopenta[c]pyridine-4-carbonitrile; formic acid], for which the IC50 under setting [1] is below 97.7 nM.
Regarding `Cc1nccc2c1CC(NCCCc1cn(-c3cnc4c(n3)NC(=O)CO4)c(=O)o1)C2` (single isomer, unassigned; enantiomer b) [Example 370, 6-[5-[3-[(1-Methyl-6,7-dihydro-5H-cyclopenta[c]pyridin-6-yl)amino]propyl]-2-oxo-1,3-oxazol-3-yl]-4H-pyrazino[2,3-b][1,4]oxazin-3-one; formic acid, Enantiomer B], the IC50 was determined as 195 nM.
Consider `N#Cc1cccc2c1CC(CNCCC1CN(c3ccc4c(n3)NC(=O)CO4)C(=O)O1)C2` (stereo not shown) [Example 5, 2-[[2-[2-oxo-3-(3-oxo-4H-pyrido[3,2-b][1,4]oxazin-6-yl)-1,3-oxazolidin-5-yl]ethylamino]methyl]-2,3-dihydro-1H-indene-4-carbonitrile], for which the IC50 under setting [1] is below 97.7 nM.
As to `NC1(COc2cc(F)c3c(c2)CC(CNCCC2CN(c4ccc5c(n4)NC(=O)CO5)C(=O)O2)C3)COC1` (stereo not shown) [Example 162, 6-[5-[2-[[6-[(3-aminooxetan-3-yl)methoxy]-4-fluoro-2,3-dihydro-1H-inden-2-yl]methylamino]ethyl]-2-oxo-1,3-oxazolidin-3-yl]-4H-pyrido[3,2-b][1,4]oxazin-3-one; formic acid], the IC50 under setting [1] was 195 nM.
Still for that read-out and setting: the figure for `N#Cc1cc(OCC2(N)CC2)cc2c1CC(CNCCC1CN(c3cnc4c(n3)NC(=O)CO4)C(=O)O1)C2` (stereo not shown) [Example 186, 6-((1-aminocyclopropyl)methoxy)-2-(((2-(2-oxo-3-(3-oxo-3,4-dihydro-2H-pyrazino[2,3-b][1,4]oxazin-6-yl)oxazolidin-5-yl)ethyl)amino)methyl)-2,3-dihydro-1H-indene-4-carbonitrile] is below 97.7 nM; for `O=C1COc2ncc(N3CC(CCNCC4Cc5c(F)cnc(-c6cn[nH]c6)c5C4)OC3=O)nc2N1` (stereo not shown) [Example 432, 6-[5-[2-[[4-fluoro-1-(1H-pyrazol-4-yl)-6,7-dihydro-5H-cyclopenta[c]pyridin-6-yl]methylamino]ethyl]-2-oxo-1,3-oxazolidin-3-yl]-4H-pyrazino[2,3-b][1,4]oxazin-3-one] it is 120 nM; for `O=C1COc2ccc(N3CC(CCNCC4Cc5ccccc5C4)OC3=O)nc2N1` (stereo not shown) [Example 87, 6-[5-[2-(2,3-dihydro-1H-inden-2-ylmethylamino)ethyl]-2-oxo-1,3-oxazolidin-3-yl]-4H-pyrido[3,2-b][1,4]oxazin-3-one] it is 584 nM.
For the compound `CCn1cc(C(=O)O)c(=O)c2ccc3c(c21)CC(CNCCC1CN(c2cnc4c(n2)NC(=O)CO4)C(=O)O1)C3` (stereo not shown) [Example 276, 1-Ethyl-4-oxo-8-[[2-[2-oxo-3-(3-oxo-4H-pyrazino[2,3-b][1,4]oxazin-6-yl)-1,3-oxazolidin-5-yl]ethylamino]methyl]-8,9-dihydro-7H-cyclopenta[h]quinoline-3-carboxylic acid], the IC50 under setting [1] stood at 635 nM.
On to `O=C1COc2ccc(N3CC(CCNCC4Cc5ccncc5C4)OC3=O)nc2N1` (stereo not shown) [Example 418, 6-[5-[2-(6,7-Dihydro-5H-cyclopenta[c]pyridin-6-ylmethylamino)ethyl]-2-oxo-1,3-oxazolidin-3-yl]-4H-pyrido[3,2-b][1,4]oxazin-3-one], for which the IC50 under setting [1] came to 751 nM.
On the same count and under the same terms, the result for `NC1CC(NCC2Cc3ccnc(Cl)c3C2)CCC12CN(c1ccc3c(n1)NC(=O)CO3)C(=O)O2` (racemic) [Example 206, 6-[rac-5,6-cis-5,8-trans-6-amino-8-[(1-chloro-6,7-dihydro-5H-cyclopenta[c]pyridin-6-yl)methylamino]-2-oxo-1-oxa-3-azaspiro[4.5]decan-3-yl]-4H-pyrido[3,2-b][1,4]oxazin-3-one] reads 1160 nM; that for `N#Cc1cccc2c1CC(CN[C@H]1CC[C@H](C3CN(c4ccc5c(n4)NC(=O)CO5)C(=O)O3)CC1)C2` (stereo partly drawn) [Example 100, 2-[[[trans-4-[2-oxo-3-(3-oxo-4H-pyrido[3,2-b][1,4]oxazin-6-yl)-1,3-oxazolidin-5-yl]cyclohexyl]amino]methyl]-2,3-dihydro-1H-indene-4-carbonitrile; formic acid], 1260 nM; that for `Cc1noc(COc2cc(C#N)c3c(c2)CC(CNCCC2CN(c4cnc5c(n4)NC(=O)CO5)C(=O)O2)C3)n1` (stereo not shown) [Example 387, 6-[(3-methyl-1,2,4-oxadiazol-5-yl)methoxy]-2-[[2-[2-oxo-3-(3-oxo-4H-pyrazino[2,3-b][1,4]oxazin-6-yl)-1,3-oxazolidin-5-yl]ethylamino]methyl]-2,3-dihydro-1H-indene-4-carbonitrile], below 97.7 nM.
The same measure, in the same setting: the result for `Cc1cnc(C)c2c1CC(CNCCC1CN(c3cnc4c(n3)NC(=O)CO4)C(=O)O1)C2` (stereo not shown) [Example 268, 6-[5-[2-[(1,4-Dimethyl-6,7-dihydro-5H-cyclopenta[c]pyridin-6-yl)methylamino]ethyl]-2-oxo-1,3-oxazolidin-3-yl]-4H-pyrazino[2,3-b][1,4]oxazin-3-one] reads below 97.7 nM; that for `O=C1COc2ccc(N3C[C@H](NC4CC(NC5Cc6cccc(F)c6C5)C4)CC3=O)nc2N1` (stereo partly drawn) [Example 23, 6-[(4R)-4-[[3-[(4-fluoro-2,3-dihydro-1H-inden-2-yl)amino]cyclobutyl]amino]-2-oxopyrrolidin-1-yl]-4H-pyrido[3,2-b][1,4]oxazin-3-one; formic acid], 2170 nM.
As to `NC1c2cccc(F)c2CC1CNCCC1CN(c2ccc3c(n2)NC(=O)CO3)C(=O)O1` (racemic) [Example 163, 6-[5-[2-[(rac-1,2-trans-1-amino-4-fluoro-2,3-dihydro-1H-inden-2-yl)methylamino]ethyl]-2-oxo-1,3-oxazolidin-3-yl]-4H-pyrido[3,2-b][1,4]oxazin-3-one], the IC50 under setting [1] worked out at 131 nM.
For the compound `N#Cc1cccc2c1CC(NC1CCC3(CN(c4ccc5c(n4)NC(=O)CO5)C(=O)O3)C(N)C1)C2` (racemic) [Example 166, 2-[[rac-5,6-cis-5,8-trans-6-amino-2-oxo-3-(3-oxo-4H-pyrido[3,2-b][1,4]oxazin-6-yl)-1-oxa-3-azaspiro[4.5]decan-8-yl]amino]-2,3-dihydro-1H-indene-4-carbonitrile], the IC50 stood at 172 nM.
On to `Cc1ncc(F)c2c1CC(CCNCC1(CCO)CN(c3ccc4c(n3)NC(=O)CO4)C(=O)O1)C2` (stereo not shown) [Example 278, 6-[5-[[2-(4-fluoro-1-methyl-6,7-dihydro-5H-cyclopenta[c]pyridin-6-yl)ethylamino]methyl]-5-(2-hydroxyethyl)-2-oxo-1,3-oxazolidin-3-yl]-4H-pyrido[3,2-b][1,4]oxazin-3-one], for which the IC50 under setting [1] was 1890 nM.
